From PMC4104029, “Mechanism of Action of Compound-13: An α1-Selective Small Molecule Activator of AMPK” (Chemistry & Biology, 2014)

Legend:
[1] = molecular target: AMPKα2β1γ1 Thr172 dephosphorylation by PP2Cα (Homo sapiens, UniProt P54619+P54646); test: Phosphatase protection assay (PP2Cα); format: biochemical; conditions: incubation with PP2Cα; 1–10 μM
Experimental: Figure 2 C2 Is a Partial Agonist of α2 Complexes and Selectively Protects α1 Complexes against Dephosphorylation by PP2C (A and B) Recombinant AMPKα1β1γ1 (A) or AMPKα2β1γ1 (B) was assayed in the presence of AMP (30 μM) and increasing concentrations of C2 (0–20 μM). Results are expressed as fold increase in activity relative to controls without ligand and represent the mean ± SD for three independent experiments. (C and D) The effects of C2 and AMP on dephosphorylation and inactivation of AMPKα1β1γ1 (C) and α2β1γ1 (D) by PP2Cα (present in all assay conditions). Results are expressed as a percentage of control reactions performed in the absence of Mg^2+ and represent the mean ± SD of three independent experiments. Representative blots of pT172 and total AMPKα are shown below the bar charts. (E) AMPKα1β1γ2 WT (open bars) and mutant complexes (β1 ΔCBD [β1 Δ1–185], gray bars, and γ2 R531G, black bars) were purified from COS1 cells by transient overexpression of the indicated constructs, as described in Methods, and assayed in the presence of the indicated compounds under standard conditions. Results are expressed as the fold increase in activity relative to controls in the absence of compound and represent the mean ± SD for three independent experiments.
AMPKα1β1γ1 or α2β1γ1 was dephosphorylated in vitro with PP2Cα in 50 mM HEPES pH 7.4, 10 mM MgCl2, 0.1 mM EGTA, 0.03% BRIJ-35, 1 mM DTT, and the indicated compounds for 15 min at 30°C. Mg^2+ was omitted from the negative control. Reactions were terminated by 20-fold dilution and storage on ice. AMPK activity was assayed under standard conditions in the presence of saturating AMP (200 μM). The results are expressed as percentage activity of the negative control. In control experiments, PP2Cα activity was determined in reactions containing 50 mM TES pH 7.4, 0.1 mM EGTA, 25 mM MgCl2, 0.01% BRIJ-35, 0.02% (v/v) 2-mercaptoethanol, and 100 μM EFLR(pT)SCGS (168–176 AMPKα2). Liberated phosphate was determined using malachite green ([Baykov et al., 1988]).

Yeast acetate CoA ligase = test: Acetate CoA ligase assay; format: biochemical; conditions: 0–100 μM
Source text: (Needleman and Wunsch, 1970) and edited using ESPript (Gouet, et al., 2003). Secondary structure was derived from PDBID 2Y94. The phosphotransferase domain is shaded green (T-loop phosphorylation site is indicated with a star), the autoinhibitory domain in blue and the C-terminal domain in yellow. Regulatory elements in the α-linker are also indicated: α-hook in pink and α-RIMs in orange. Black lines indicate the position of the epitopes recognised by α-subunit specific antibodies used in this study. (B) COS-1 cells were seeded into 6-well plates and transiently transfected with pCMV-AMPKβ1, pCMV-AMPKγ1 and either pCMV-FLAG-AMPKα2 WT or pCMV-FLAG-AMPKα2/α1 LOOP chimera using FuGENE HD.
After 24 h cells were treated with the indicated compounds for 1 h and kinase activity determined in anti-FLAG immunoprecipitates under standard conditions. […]
Mouse hepatocytes were incubated with the indicated compounds in the absence (Resting) or presence of 10 mU/ml insulin for 60 min. Lysates were analysed by Western blotting using the indicated antibodies. […]
Yeast acetate CoA ligase (Sigma) was assayed in reactions containing 50 mM TES pH 7.4, 0.1 mM EDTA, 5 mM MgCl2, 4 mM ATP, 0.2 mM coenzyme A, 5 mM DTT and increasing concentrations of C2 and C13 (0 – 100 μM). The formation of pyrophosphate (PPi) was monitored by reduction of PPi-molybdate complexes as described in Methods. […]

Sequence of AMPKα2β1γ1 Thr172 dephosphorylation by PP2Cα (P54646 whole entry): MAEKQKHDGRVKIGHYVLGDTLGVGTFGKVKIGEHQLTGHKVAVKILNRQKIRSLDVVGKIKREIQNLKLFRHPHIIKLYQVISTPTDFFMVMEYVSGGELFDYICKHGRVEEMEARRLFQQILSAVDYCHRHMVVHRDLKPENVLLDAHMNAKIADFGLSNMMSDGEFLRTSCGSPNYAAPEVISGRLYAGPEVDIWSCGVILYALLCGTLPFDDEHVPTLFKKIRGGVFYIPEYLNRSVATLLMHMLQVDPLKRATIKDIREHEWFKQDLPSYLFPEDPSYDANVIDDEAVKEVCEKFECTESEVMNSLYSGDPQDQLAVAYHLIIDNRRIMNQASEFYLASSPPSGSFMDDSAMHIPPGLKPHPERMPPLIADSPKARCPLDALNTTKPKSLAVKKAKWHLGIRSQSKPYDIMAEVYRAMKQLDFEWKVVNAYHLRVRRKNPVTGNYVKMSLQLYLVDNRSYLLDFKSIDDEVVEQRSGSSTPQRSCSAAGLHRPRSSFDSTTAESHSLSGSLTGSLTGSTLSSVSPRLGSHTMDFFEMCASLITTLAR
Sequence of AMPKα2β1γ1 Thr172 dephosphorylation by PP2Cα (Q9Y478 whole entry partner): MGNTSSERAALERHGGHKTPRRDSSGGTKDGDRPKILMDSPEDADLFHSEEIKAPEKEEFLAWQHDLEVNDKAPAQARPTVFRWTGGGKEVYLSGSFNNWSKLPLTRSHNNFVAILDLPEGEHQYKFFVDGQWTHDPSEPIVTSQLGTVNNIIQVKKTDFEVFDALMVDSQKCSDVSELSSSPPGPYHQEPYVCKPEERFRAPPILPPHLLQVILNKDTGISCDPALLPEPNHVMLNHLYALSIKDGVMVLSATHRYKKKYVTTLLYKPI
Sequence of AMPKα2β1γ1 Thr172 dephosphorylation by PP2Cα (P54619 whole entry): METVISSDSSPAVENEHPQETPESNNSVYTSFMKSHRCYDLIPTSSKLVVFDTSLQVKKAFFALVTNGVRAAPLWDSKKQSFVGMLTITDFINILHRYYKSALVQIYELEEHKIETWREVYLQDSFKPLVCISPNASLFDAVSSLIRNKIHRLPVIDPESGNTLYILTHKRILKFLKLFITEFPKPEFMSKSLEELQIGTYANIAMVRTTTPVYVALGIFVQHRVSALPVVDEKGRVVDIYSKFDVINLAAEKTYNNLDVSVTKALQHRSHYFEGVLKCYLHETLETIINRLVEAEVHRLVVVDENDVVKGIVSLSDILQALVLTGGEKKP

Structure (SMILES)	effect on dephosphorylation [1]	IC50 (Yeast acetate CoA ligase) [µM]
O=P(O)(O)c1ccc(-c2cc(O)on2)o1 [Compound C2, 5-(5-hydroxyl-isoxazol-3-yl)-furan-2-phosphonic acid]	essentially no effect	–
CC(C)C(=O)OCOP(=O)(OCOC(=O)C(C)C)c1ccc(C2=NOC(=O)C2)o1 [Compound C13]	–	33 ± 2.2
